The text below walks through data of US9840494B2, “Quinazoline derivative” (Tianjin Hemay Oncology Pharmaceutical Co., Ltd., priority 2013, dated 2017).

A short description of data set [1]: MTD assay, single administration to mice. Type of data set: in vivo. As to conditions: ICR male mice, tail intravenous administration, 14 days. The text has this: MTD Assay for a Single […] to Mice
1. Experimental Animals: ICR male mice, weighing 19-22 g, were purchased from Beijing Vital River Laboratory Animal Technology Co., Ltd., Animal License No. SCXK (Beijing) 2007-0001
2. Experimental Scheme: 21 mice were divided into nine groups: groups I, IV and VI referred to one mouse per group, groups II, V and IIX referred to four mice per group, and group III, VI and IX referred to two mice per group. Compound 4, compound 2 and compound 12 were dissolved in water for injection. Groups I-III were subjected to tail intravenous administration of compound 4 (N-[4-(3-chloro-4-fluorophenylamino)-7-(2-methoxyethoxy)quinazolin-6yl]-2-[piperidin-4-ylidene]acetamide dihydrochloride) at doses of 100 mg/kg, 150 mg/kg, and 200 mg/kg, respectively. The animal response and the weight change were observed after administration, and these animals were sacrificed after 14 days for anatomical observation. Groups IV-VI were subjected to tail intravenous administration of compound 2 (N-[4-(3-chloro-4-fluorophenylamino)-7-(2-methoxyethoxy)quinazolin-6yl]-2-[1-(2-methoxyethyl)piperidin-4-ylidene]acetamide dihydrochloride) at doses of 100 mg/kg, 150 mg/kg, and 200 mg/kg, respectively. The animal response and the weight change were observed after administration, and these animals were sacrificed after 14 days for anatomical observation. Groups VII-IX were subjected to tail intravenous administration of compound 12 (N-[4-(3-ethynylphenylamino-7-(2-ethoxy)quinazolin-6yl]-2-[1-methylpiperidin-4-ylidene]acetamide dihydrochloride) at doses of 100 mg/kg, 150 mg/kg, and 200 mg/kg, respectively. The animal response and the weight change were observed after administration, and these animals were sacrificed after 14 days for anatomical observation.

Data set [2] is described as follows: Preliminary pharmacokinetic studies. Type of data set: in vivo.
For data set [3] the following is noted: FDA application records; cited from earlier work.
The conditions of data set [4]: Li D et al., Oncogene 2008; cited from earlier work.

Counter-ions that a name gives are not always drawn.

Consider `C#Cc1cccc(Nc2ncnc3cc(OCC)c(NC(=O)C=C4CCN(C)CC4)cc23)c1` [Compound 12, N-[4-(3-ethynylphenylamino-7-(2-ethoxy)quinazolin-6-yl]-2-[1-methylpiperidin-4-ylidene]acetamidedihydrochloride], for which, in data set [1] (100 mg/kg, 1 animal), the Mortality is 0% and the “Number of Deaths” value was 0. In data set [1] (150 mg/kg, 4 animals), the Mortality was determined as 50% and the “Number of Deaths” value was 2. Besides, in data set [1] (200 mg/kg, 2 animals), the Mortality was 100% and the “Number of Deaths” value is 2. Further, in data set [2], the “distribution (gathering in the gastrointestinal tract)” value is on record as “gathered in the gastrointestinal tract” and the oral bioavailability result is “very low”.
As to `CN(C)C/C=C/C(=O)Nc1cc2c(Nc3ccc(F)c(Cl)c3)ncnc2cc1O[C@H]1CCOC1` [Afatinib], the bioavailability in data set [3] is reported as 11.175%. Moreover, in data set [4], the MTD is reported as 30 mg/kg.
`COCCOc1cc2ncnc(Nc3ccc(F)c(Cl)c3)c2cc1NC(=O)C=C1CCNCC1` [Compound 4, N-[4-(3-chloro-4-fluorophenylamino)-7-(2-methoxyethoxy)quinazolin-6yl]-2-[piperidin-4-ylidene]acetamide dihydrochloride]: in data set [1] (100 mg/kg, 1 animal), the Mortality amounted to 0% and the “Number of Deaths” value is 0. For the same molecule, in data set [1] (150 mg/kg, 4 animals), the Mortality was found to be 0% and the “Number of Deaths” value came out at 0. In data set [1] (200 mg/kg, 2 animals), the Mortality was 50% and the “Number of Deaths” value was 1. In data set [2], the “distribution (gathering in the gastrointestinal tract)” value is “gathered in the gastrointestinal tract” and the oral bioavailability result is given as “very low”.
